# Counter-ions that a name gives are not always drawn.
# Assay: solid form screen of Compound 1 di(hydrogen sulfate), XRPD damp and dried (Example 1)
# Type: physicochemical
# Description: Example 1—Solid Form Screen of Compound 1 Di(Hydrogen Sulfate): Amorphous Compound 1 di(hydrogen sulfate) (made in accordance with Example 7) was prepared and then subject to various crystallization techniques—temperature cycling, evaporation, crash cooling, solvent drop grinding, anti-solvent addition—each of which is described in more detail below. In addition, a reactive crystallization experiment was also conducted on Compound 1, which is a free base.
# Temperature Cycling: Approximately 20 mg of Amorphous Compound 1 di(hydrogen sulfate) was added to 24×1.5 mL screw cap vials. Into each vial, the appropriate solvent system was added in 50 μL aliquots in an attempt to form slurries at 40° C. When the addition was completed, the samples were temperature-cycled between 40° C. and 5° C., using 0.1° C./min ramp and 1 hr hold between steps. After about 24 hours of cycling, anti-solvent addition at 40° C. was carried out on samples that were clear solutions. Temperature cycling was continued for all samples for a total of 48 hours. After 48 hours of cycling, any solids present in the samples were isolated via centrifugation and analyzed damp by XRPD to assess the polymorphic form.
# Evaporation: Solutions of Amorphous Compound 1 di(hydrogen sulfate) were prepared in different solvent systems. […] The solutions were then left open to allow the solvents to evaporate at ambient. Solids observed post-evaporation were analyzed by XRPD.
# Crash Cooling: Solutions of Amorphous Compound 1 di(hydrogen sulfate) were prepared in different solvent systems. […] The solutions were placed in a refrigerator to crash-cool the samples to about 5° C. for 48 hours. Solids observed at this point were analyzed by XRPD. The rest of the samples where no solids were observed were placed in a freezer to allow the samples to crash-cool further to about −20° C. After about 48 hours in the freezer, samples with solids were analyzed by XRPD. For samples where solids were still not observed, anti-solvent addition was carried out at 5° C., and the samples returned to the freezer. After 4 days in the freezer post-ASA, any solids present were analyzed by XRPD.
# Solvent Drop Grinding: 15-20 mg of Amorphous Compound 1 di(hydrogen sulfate) was added to 24×2 mL bead mill tubes. Into each tube, 5 μL of the appropriate solvent system was added at ambient. Two small stainless-steel beads were placed in each tube, and the samples were milled using the following program: (1) Speed=5000 rpm; (2) Cycle=10×90 s; (3) Pause=10 s; (4) Repeat=duplicate. For samples where dissolution was suspected during the milling, additional amorphous material was added, and the milling program repeated. When the milling program was completed, the residual solids were analyzed by XRPD.
# Anti-solvent Addition: 20-25 mg of Amorphous Compound 1 di(hydrogen sulfate) was added to 24×1.5 mL screw cap vials. Into each vial, 100 μL of the appropriate solvent system was added at 25° C. to form solutions. Where complete dissolution was not observed, an additional 400 μL of solvent was added and the samples were stirred at 50° C. to allow further dissolution. The mother liquors of these samples were needle-filtered into a new set of vials. To all the solutions, anti-solvent addition was carried out at 25° C. Where sufficient precipitation was observed post-ASA, these were isolated and analyzed by XRPD. Where thin slurries or clear solutions were observed post-ASA, these were cooled to 5° C. at 0.1° C./min and stirred at 5° C. for ca 18 h. Any solids present were isolated and analyzed by XRPD.
# Reactive Crystallization: 15-20 mg of Compound 1 was added to 18×1.5 mL screw cap vials. Into each vial, 100 μL of the appropriate solvent system was added at 40° C. 2.05 mole equiv. of H2SO4 was also added to the vials as solutions in 100 μL of the respective solvent systems. The samples were stirred at 40° C. for another approximately 30 mins, cooled to 5° C. at 0.1° C./min and left stirring at 5° C. for about 18 h. […]
smiles,measurement,setting,value
COc1cc(C(=O)O[C@@H]2CCCOc3cc(cc(OC)c3OC)C(=O)NCCCN3CCCN(CC2)CC3)cc(OC)c1OC [Compound 1 di(hydrogen sulfate)],XRPD (Damp) Evaporation,"1,4-Dioxane","2, PC"
same,XRPD (Damp) Temp cycling,"1,4-Dioxane","2, PC"
same,XRPD (Dried) Anti-solvent addition,"1,4-Dioxane",Am
same,XRPD (Dried) Evaporation,"1,4-Dioxane","2, PC"
same,XRPD (Dried) Solvent drop grinding,"1,4-Dioxane",Am
same,XRPD (Dried) Temp cycling,"1,4-Dioxane","2, PC"
same,XRPD (Damp) Anti-solvent addition,1-Propanol,"2, PC"
same,XRPD (Damp) Solvent drop grinding,1-Propanol,"2, PC"
same,XRPD (Dried) Anti-solvent addition,1-Propanol,"2, PC"
same,XRPD (Dried) Temp cycling,1-Propanol,Am
same,XRPD (Damp) Evaporation,2-Methyl THF,"2, PC"
same,XRPD (Dried) Anti-solvent addition,2-Methyl THF,Am
same,XRPD (Dried) Evaporation,2-Methyl THF,"2, PC"
same,XRPD (Dried) Solvent drop grinding,2-Methyl THF,Am
same,XRPD (Dried) Temp cycling,2-Methyl THF,Am
same,XRPD (Damp) Evaporation,2-Propanol,"2, PC"
same,XRPD (Dried) Anti-solvent addition,2-Propanol,Am
same,XRPD (Dried) Reactive cryst.,2-Propanol,Am
same,XRPD (Dried) Temp cycling,2-Propanol,Am
same,XRPD (Damp) Evaporation,2-propanol:water (50:50% v/v),"2, PC"
same,XRPD (Dried) Evaporation,2-propanol:water (50:50% v/v),"2, PC"
same,XRPD (Damp) Crash cooling,2-propanol:water (75:25% v/v),"2, PO"
same,XRPD (Damp) Reactive cryst.,2-propanol:water (75:25% v/v),"2, PC"
same,XRPD (Dried) Crash cooling,2-propanol:water (75:25% v/v),"2, PO"
same,XRPD (Damp) Evaporation,Acetone,"2, PC"
same,XRPD (Damp) Temp cycling,Acetone,"2, PC"
same,XRPD (Dried) Anti-solvent addition,Acetone,Am
same,XRPD (Dried) Evaporation,Acetone,"2, PC"
same,XRPD (Dried) Solvent drop grinding,Acetone,Am
same,XRPD (Dried) Temp cycling,Acetone,"2, PC"
same,XRPD (Damp) Evaporation,Acetonitrile,"6, PC"
same,XRPD (Dried) Evaporation,Acetonitrile,"6+, PC"
same,XRPD (Dried) Solvent drop grinding,DCM,Am
same,XRPD (Dried) Anti-solvent addition,DMF,Am
same,XRPD (Dried) Solvent drop grinding,DMF,Am
same,XRPD (Dried) Anti-solvent addition,DMSO,Am
same,XRPD (Dried) Solvent drop grinding,DMSO,Am
same,XRPD (Dried) Evaporation,Ethanol:water (90:10% v/v),"2, PC"
same,XRPD (Dried) Reactive cryst.,Ethyl Acetate,Am
same,XRPD (Dried) Solvent drop grinding,Ethyl Acetate,Am
same,XRPD (Dried) Temp cycling,Ethyl Acetate,Am
same,XRPD (Dried) Solvent drop grinding,Isopropyl Acetate,Am
same,XRPD (Dried) Temp cycling,Isopropyl Acetate,Am
same,XRPD (Damp) Temp cycling,MEK,"2, PC"
same,XRPD (Dried) Solvent drop grinding,MEK,Am
same,XRPD (Dried) Temp cycling,MEK,"2, PC"
same,XRPD (Damp) Solvent drop grinding,Methanol,"2, PC"
same,XRPD (Dried) Reactive cryst.,Methanol,Am
same,XRPD (Dried) Solvent drop grinding,Methanol,"2, PC"
same,XRPD (Dried) Temp cycling,Methanol,Am
same,XRPD (Dried) Reactive cryst.,MiBK,Am
same,XRPD (Dried) Solvent drop grinding,MiBK,Am
same,XRPD (Dried) Temp cycling,MiBK,Am
same,XRPD (Damp) Evaporation,THF,"2, PC"
same,XRPD (Dried) Evaporation,THF,"2, PC"
same,XRPD (Dried) Solvent drop grinding,THF,Am
same,XRPD (Dried) Solvent drop grinding,Toluene,Am
same,XRPD (Dried) Temp cycling,Toluene,Am

# From patent US20240327415A1, “Multicomponent Complexes, Including Salts, Crystalline Forms, and Hydrates and Solvates of ENT1 Inhibitors” (iTeos Belgium SA, priority 2023, published 2024)
